Reference: patent publication US6548539B1, “Agents for regulation of colon cancer gene expression” (Avalon Pharmaceuticals, priority 2001, dated 2003)

How the values were obtained:
Type in all cases: cell-based, human
Details in all cases: HT29 cell line (colon tumor), compound 10 μM, 24 hours, vs control
[1] = test system: Gene 2; assay: Gene modulating activity in colon cancer cells (RT-PCR RNA expression), Gene 2
Method: (§1) In such assays, primary cells, or tissue samples, are maintained in growth medium and are treated with compounds at a single concentration (10 μM for the data of Table 1) or at a range of concentrations (such as from 1 μM up to 100 μM). At specific times after treatment at the given concentration of test compound, cellular RNAs are isolated from the treated cells, primary cells or tumors, which RNAs are indicative of expression of selected genes, including, but not limited to, the genes used herein. The cellular RNA is then divided and subjected to analysis that detects the presence and/or quantity of specific RNA transcripts, which transcripts may then be amplified for detection purposes using standard methodologies, such as, for example, reverse transcriptase polymerase chain reaction (RT-PCR), etc. The presence or absence, or levels, of specific RNA transcripts are determined from these measurements and a metric derived for the type and degree of response of the sample to the treated compound compared to control samples. One such procedure is shown in example 8 where test compound may or may not be present.
For example, Gene 2 was a gene that encodes a kallikrein. Tissue or glandular kallikreins are members of a large and highly conserved family of serine proteases that are central to many physiological processes. They are secreted protein-cleaving enzymes that process for example kininogen (local blood flow, sodium balance, inflammation, cell proliferation), growth factors (EGF, NGF, vasoactive peptide), or other substrates. The prostate antigens hK2 and PSA are members of this family. Diseases in which kallikreins have been implicated include acute pancreatitis, inflammatory arthritis and inflammatory bowel disease, sepsis, enterocolitis, arterial and salt-sensitive hypertension, blood coagulation disorders, scorpion and snake evenomation, infections and cancer. Thus, the chemical agents disclosed herein find use in the treatment and/or prevention of any of these diseases.
(§2) HT29 cells are grown to a density of 10^5 cells/cm^2 in Leibovitz's L-15 medium supplemented with 2 mM L-glutamine (90%) and 10% fetal bovine serum. The cells are collected after treatment with 0.25% trypsin, 0.02% EDTA at 37° C. for 2 to 5 minutes. The trypsinized cells are then diluted with 30 ml growth medium and plated at a density of 50,000 cells per well in a 96 well plate (200 μl/well). The following day, cells are treated with either compound buffer alone, or compound buffer containing a chemical agent to be tested, for 24 hours. The media is then removed, the cells lysed and the RNA recovered using the RNAeasy reagents and protocol obtained from Qiagen. […] Reverse transcription is then carried out at 48° C. for 30 minutes. The sample is then applied to a Perlin Elmer 7700 sequence detector and heat denatured for 10 minutes at 95° C. Amplification is performed through 40 cycles using 15 seconds annealing at 60° C. followed by a 60 second extension at 72° C. and 30 second denaturation at 95° C. Data files are then captured and the data analyzed with the appropriate baseline windows and thresholds.
(§3) For testing of the effects of a compound of Table 1, each compound was present at a concentration of 10 μM in the culture medium.
The quantitative difference between the target and reference genes is then calculated and a relative expression value determined for all of the samples used. This procedure is then repeated for each of the target genes in a given signature, or characteristic, set and the relative expression ratios for each pair of genes is determined (i.e., a ratio of expression is determined for each target gene versus each of the other genes for which expression is measured, where each gene's absolute expression is determined relative to the reference gene for each compound, or chemical agent, to be screened). […]

[2] = test system: Gene 9; assay: Gene modulating activity in colon cancer cells (RT-PCR RNA expression), Gene 9
Method: as §1, §2, §3
(§4) The quantitative difference between the target and reference genes is then calculated and a relative expression value determined for all of the samples used. This procedure is then repeated for each of the target genes in a given signature, or characteristic, set and the relative expression ratios for each pair of genes is determined (i.e., a ratio of expression is determined for each target gene versus each of the other genes for which expression is measured, where each gene's absolute expression is determined relative to the reference gene for each compound, or chemical agent, to be screened). The samples are then scored and ranked according to the degree of alteration of the expression profile in the treated samples relative to the control. The overall expression of the set of genes relative to the controls, as modulated by one chemical agent relative to another, is also readily ascertained. Chemical agents having the most effect on a given gene, or set of genes, are considered the most therapeutic or anti-neoplastic, depending on the tissues being studied. In each case, the agent was present in the cell culture at a concentration of ten micromolar.
(§5) The sets of genes, or signature sets, useful in the methods of the invention disclosed herein represent a set of genes expressed at a higher level in a cancer cell line derived from colon but not expressed at a higher level in normal colon (for example, genes 1, 2, 4-10 for the data of Table 1) or whose expression is higher in normal cells (for example, genes 3 and 11 for the data of Table 1) relative to the cancer cells. […]

[3] = test system: Gene 11; assay: Gene modulating activity in colon cancer cells (RT-PCR RNA expression), Gene 11
Method: as §1, §2, §3
as §4, with “In each case, the agent was present in the cell culture at a concentration of ten micromolar.” left out

[4] = test system: Gene 3; assay: Gene modulating activity in colon cancer cells (RT-PCR RNA expression), Gene 3
Method: as §1, §2, §3, §4, §5

[5] = test system: Gene 1; assay: Gene modulating activity in colon cancer cells (RT-PCR RNA expression), Gene 1
Method: as §1, §2, §3, §4, §5

[6] = test system: Gene 7; assay: Gene modulating activity in colon cancer cells (RT-PCR RNA expression), Gene 7
Method: as §1, §2, §3, §4, §5

[7] = test system: Gene 5; assay: Gene modulating activity in colon cancer cells (RT-PCR RNA expression), Gene 5
Method: as §1, §2, §3, §4, §5

[8] = test system: Gene 4; assay: Gene modulating activity in colon cancer cells (RT-PCR RNA expression), Gene 4
Method: as §1, §2, §3, §4, §5

[9] = test system: Gene 10; assay: Gene modulating activity in colon cancer cells (RT-PCR RNA expression), Gene 10
Method: as §1, §2, §3, §4, §5

[10] = test system: Gene 6; assay: Gene modulating activity in colon cancer cells (RT-PCR RNA expression), Gene 6
Method: as §1, §2, §3, §4, §5

[11] = test system: Gene 8; assay: Gene modulating activity in colon cancer cells (RT-PCR RNA expression), Gene 8
Method: as §1, §2, §3, §4, §5

SMILES	Gene 2 Folds of up (+) or down (−) regulatlon [1]	Gene 9 Folds of up (+) or down (−) regulatlon [2]	Gene 11 Folds of up (+) or down (−) regulatlon [3]	Gene 3 Folds of up (+) or down (−) regulatlon [4]	Gene 1 Folds of up (+) or down (−) regulatlon [5]	Gene 7 Folds of up (+) or down (−) regulatlon [6]	Gene 5 Folds of up (+) or down (−) regulatlon [7]	Gene 4 Folds of up (+) or down (−) regulatlon [8]	Gene 10 Folds of up (+) or down (−) regulatlon [9]	Gene 6 Folds of up (+) or down (−) regulatlon [10]	Gene 8 Folds of up (+) or down (−) regulatlon [11]
COCCN(C(=O)COc1ccccc1)C1CCCC1Sc1ccccc1 (stereo not drawn) [AV-1241]	1.7 Folds	9.2 Folds	27.9 Folds	29.9 Folds	1.9 Folds	26.0 Folds	1.2 Folds	2.0 Folds	13.0 Folds	2.8 Folds	2.1 Folds
CC(C)CN(C(=O)c1ccccc1)C1CCCC1Sc1ccccc1 (stereo not drawn) [AV-96]	2.8 Folds	2.5 Folds	3.7 Folds	3.2 Folds	3.5 Folds	5.3 Folds	2.8 Folds	2.8 Folds	1.9 Folds	−4.9 Folds	2.8 Folds
O=C(Nc1ccc(-c2ccccc2)cc1)N(Cc1ccccc1)C1CCCC1Sc1ccccc1 (stereo not drawn) [AV-1030]	3.7 Folds	−2.6 Folds	−4.6 Folds	−1.1 Folds	2.1 Folds	−1.1 Folds	2.5 Folds	1.1 Folds	−2.5 Folds	1.4 Folds	−2.6 Folds
CN(C(=O)C1CCC1)C1CCCCC1Sc1ccccc1 (stereo not drawn) [AV-283]	−1.7 Folds	−3.7 Folds	−34.3 Folds	−4.6 Folds	−2.1 Folds	−3.7 Folds	−1.5 Folds	−1.7 Folds	−3.0 Folds	−3.5 Folds	−1.7 Folds
CCCN(C(=O)c1ccccc1)C1CCCC1Sc1ccccc1 (stereo not drawn) [AV-221]	1.4 Folds	1.2 Folds		−3.5 Folds	64.0 Folds	90.5 Folds	1.5 Folds	1.4 Folds	−6.5 Folds	−1.1 Folds	1.6 Folds
CCCN(C(=O)Nc1ccc(-c2ccccc2)cc1)C1COCC1SC (stereo not drawn) [AV-916]	−1.1 Folds	−6.5 Folds	−3.7 Folds	−8.0 Folds	−2.1 Folds	−1.2 Folds	−1.2 Folds	−1.3 Folds	−8.6 Folds	1.0 Folds	−3.0 Folds
CSC1CCCC1NC(=O)Nc1cccc(Cl)c1 (stereo not drawn) [AV-988]	2.3 Folds	1.3 Folds		−11.3 Folds	2.6 Folds	1.2 Folds	1.9 Folds	1.9 Folds	−4.6 Folds	2.0 Folds	1.7 Folds
